# Experimental data published in US10513723B2 (AMGEN INC., priority 2014, dated 2019).
# Key:
# [1] = system: Cell line I (expresses an IgG2 antibody); experiment: Fed-batch 2 L bioreactor culture, % high mannose by peptide mapping glycan profiling; format: cell-based; details: single supplement of 0.1 g/L L-ornithine monohydrochloride on day 0 vs ornithine-free control; samples days 6, 8 and 12; FIG. 8
# Procedure: Glycan profiling was performed by peptide mapping. […] Specifically, about 50-70 μg of each antibody was denatured and reduced with 7.0 M guanidine.HCl, 6 mM dithiothreitol (DTT) in 0.2 M tris buffer (pH 7.5) at 37° C. for 30 minutes. Each denatured/reduced sample was alkylated with 14 mM iodoacetic acid at 25° C. for 25 minutes, followed by quenching the reaction by adding 8 mM DTT. […] The buffer-exchanged sample was incubated at 37° C. with 3.5 μg trypsin for 60 minutes. Digestion was quenched by adding 2.2 μL of 10% acetic acid. About 12-17 μg of digested antibody was injected for analysis.
# The digested antibody was analyzed using an Agilent 1260 HPLC system directly connected to a Thermo Scientific LTQ-Orbitrap Elite mass spectrometer (Thermo Fisher Scientific Inc., Rockford, Ill.). Proteolytic peptides were separated on a Waters BEH 300 C18 column (Waters Corporation, Milford, Mass.) 2.1×150 mm, 1.7μ particle at 40° C. with a flow rate of 0.2 mL/min. Mobile phase A was 0.02% TFA in water and mobile phase B was 0.018% TFA in acetonitrile. Peptides were eluted with a gradient of 0.5-40% B in 90 minutes, followed by column washing and re-equilibration. Mass spectrometer was set up for a full MS scan in the orbitrap with 120,000 resolution followed by five data-dependent CID MS/MS scans in the linear trap with dynamic exclusion.
# [2] = system: Cell line H (CHO cells expressing recombinant antibody); experiment: Small scale mock perfusion, % high mannose (HILIC glycan map) of the expressed recombinant glycoprotein; format: cell-based, Chinese hamster
# Procedure: Cell lines H was used in this study. Cells were maintained in 3 L Erlenmeyer shake flasks (Corning Life Sciences, Lowell, Mass.) with 1 L working volume and cultivated under standard humidified condition at 36° C., 5% CO2, and shaken at 70 rpm in an automatic CO2 incubator (Thermo Fisher Scientific, Waltham, Mass.). Cells were sub-cultured in a selective growth media containing a 500 nM concentration of methotrexate (MTX) every four days, and subsequently transferred, inoculated and cultured in a growth media for four days before being seeded in a 24 wells plate for the experiments described below. […] Different N-glycan species of antibodies were analyzed by hydrophilic-interaction liquid chromatography (HILIC). The purified antibodies were digested by N-glycosidase F (New England BioLabs, Ipswich, Mass.) at 37° C. for 2 hours to release the glycans. The released glycans were labeled with 2-aminobenzoic acid and cleaned up using GlycoClean S cartridges (Prozyme, […], Calif.). Purified glycans were then desalted and reconstituted in water for assay. HILIC chromatography was performed with a 100 mm×2.1 mm i.d BEH Glycan column using UPLC (Waters Corporation, Milford, Mass.) and the eluted glycans were detected, identified, and qualified by a fluorescence detector based on different elution times of different glycans.
# [3] = system: Cell line H (CHO cells expressing recombinant antibody); details: spermine tetrahydrochloride 0, 7, 17, 35 and 100 μM; day 5 samples; FIG. 6
# Procedure: Samples were collected on day 5 of the mock perfusion assay. The 35 μM sample served as a control.
# An arginine-free formulation of a perfusion media was used for small scale mock perfusion Experiment #3 (arginine concentration studies) according to the experimental design. In small scale mock perfusion Experiment #4 all arginase inhibitors were added to a perfusion media.
# Briefly, the CHO cells were seeded in the plate at the targeted density ranging from 10-20×10^6 cells/mL with 3 mL working volume for each well. The cells were cultivated at 36° C., 5% CO2, 85% relative humidity and shaken at 225 rpm in a 50-mm orbital diameter Kuhner incubator (Kuhner AG, Basel, Switzerland) for 3 or 4 days. Every 24 hours, the cells were centrifuged at 200×g for 5 minutes (Beckman Coulter, Brea, Calif.) to collect the spent media and each well was then replenished with 3 mL of fresh media. The collected spent media were analyzed for titer, key metabolites and % high mannose (% HMN) (when necessary). Cells were then harvested and cell counts and viability were measured.
# Five different concentrations of spermine were tested in this study. […] The perfusion medium containing 35 μM spermine acted as a control.
# [4] = system: Cell line H (CHO cells expressing recombinant antibody); details: reduction/depletion of spermine in perfusion medium (0-100 μM)
# [5] = first series: four arginase inhibitors at 1, 10 and 20 μM vs inhibitor-free control, FIG. 10
# [6] = second series: BEC 0, 10 μM, 0.5 mM, DL-α 0, 10 μM, 1.0 mM, 2.0 mM in perfusion medium, FIG. 11
compound,measurement,setting,value
"Cl.NCCC[C@H](N)C(=O)O [ornithine, L-ornithine monohydrochloride]",% HMN (high mannose glycoform content),[1],as the ornithine concentration is increased the % HMN increased
S-(2-boronoethyl)-1-cysteine [BEC],% HM (high mannose glycoform content),[2]; [5],most effective in decreasing % HM
same,% HM (high mannose glycoform content),[2]; [6],% HM was decreased as both inhibitor concentrations increased
"Cl.Cl.Cl.Cl.NCCCNCCCCNCCCN [spermine, spermine tetrahydrochloride]",% HMN (high mannose glycoform content),"[2]; spermine tetrahydrochloride 0, 7, 17, 35 (control) and 100 μM in perfusion medium, day 5 samples, FIG. 5","as the spermine concentration was reduced, the % HMN decreased"
same,amount of ornithine (extracellular),[3],the amount of ornithine decreased with a decrease in spermine concentration
same,Titer,[4],not affected
"Cl.NCCC[C@](N)(C(=O)O)C(F)F (racemic) [DL-α, DL-α, Diflouromethylornithine Hydrochloride]",% HM (high mannose glycoform content),[2]; [5],most effective in decreasing % HM
same,% HM (high mannose glycoform content),[2]; [6],% HM was decreased as both inhibitor concentrations increased
"Cl.N=C(N)NCCC[C@H](N)C(=O)O [arginine, arginine monohydrochloride]",% HM (high mannose glycoform content),"[2]; arginine 3.686, 1.843 (control), 1.38, 0.92 and 0.46 g/L in perfusion medium, FIG. 9",as the arginine concentration is increased the % HM increased
